The test system of this test is cell laminate comprising a vascular endothelial cell layer and a smooth muscle cell layer on an HCM. As to the kind of experiment: Evaluation of response to physiologically active substances (thrombin added to cell laminate, microscopy). Format: cell-based. The following applies: 37° C., 30 minutes, rat VEC/SMC-HCM insert. On the procedure:
(1) 0.1 mg (100 UN) of thrombin (#T7009-100UN, Sigma) was dissolved in 100 μL of physiological saline to prepare a thrombin solution having a concentration of 1000 U/mL. The thrombin solution was further diluted with HBSS(+) to prepare a 25 U/mL thrombin solution and a 100 U/mL thrombin solution.
(2) 900 μL of HBSS(+) was added to each of the wells of a 24-well plate.
(3) The inserts comprising the cell laminate were taken out of the medium, the medium was removed from the inner side of each insert using an aspirator, and the inserts were placed in the wells.
(4) 200 μL of either HBSS(+) (control), the 25 U/mL thrombin solution, or the 100 U/mL thrombin solution was added to the inner side of each of the inserts placed on the wells, and the inserts were incubated at 37° C. for 30 minutes.
(5) The state of the cell laminate was observed under a microscope. The microscopic image of the cell laminate is shown in FIG. 9 (superimposed image of red fluorescence: VE-cadherin and green fluorescence: α-smooth muscle actin).

Here are results for one substance from patent US12351789B2, “Method for producing cell laminate” (FUJIFILM CORPORATION, priority 2017, dated 2025).

Turning to thrombin, where the note is “25 U/mL or 100 U/mL thrombin solution, HBSS(+) control”, the cell contraction result is “cell contraction due to activation of actin stress fibers caused by the addition of thrombin was observed”. In addition, the “dependence of cell contraction on thrombin concentration” value (25 U/mL versus 100 U/mL thrombin solution) was “Higher thrombin concentrations caused stronger cell contractions”.
